PubChem BioAssay (NCI)
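How tested: cells in 96-well plates exposed to compound for 48 hours at five concentrations. TGI: total growth inhibition.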

What was measured:
Assay in all cases: NCI tumour cell line growth inhibition, 48 h
786-0 renal = test system: 786-0 renal
A498 renal = test system: A498 renal
A549 NSCLC = test system: A549 NSCLC
ACHN renal = test system: ACHN renal
CAKI-1 renal = test system: CAKI-1 renal
CCRF-CEM leukemia = test system: CCRF-CEM leukemia
COLO 205 colon = test system: COLO 205 colon
DLD-1 colon = test system: DLD-1 colon
DMS 114 small cell lung = test system: DMS 114 small cell lung
DMS 273 small cell lung = test system: DMS 273 small cell lung
EKVX NSCLC = test system: EKVX NSCLC
HCT-116 colon = test system: HCT-116 colon
HCT-15 colon = test system: HCT-15 colon
HL-60(TB) leukemia = test system: HL-60(TB) leukemia
HOP-62 NSCLC = test system: HOP-62 NSCLC
HOP-92 NSCLC = test system: HOP-92 NSCLC
HT29 colon = test system: HT29 colon
IGROV1 ovarian = test system: IGROV1 ovarian
K-562 leukemia = test system: K-562 leukemia
KM12 colon = test system: KM12 colon
LOX IMVI melanoma = test system: LOX IMVI melanoma
LXFL 529 NSCLC = test system: LXFL 529 NSCLC
M14 melanoma = test system: M14 melanoma
M19-MEL melanoma = test system: M19-MEL melanoma
MALME-3M melanoma = test system: MALME-3M melanoma
MOLT-4 leukemia = test system: MOLT-4 leukemia
NCI-H23 lung = test system: NCI-H23 lung
NCI-H460 lung = test system: NCI-H460 lung
NCI-H522 lung = test system: NCI-H522 lung
OVCAR-3 ovarian = test system: OVCAR-3 ovarian
OVCAR-4 ovarian = test system: OVCAR-4 ovarian
OVCAR-5 ovarian = test system: OVCAR-5 ovarian
OVCAR-8 ovarian = test system: OVCAR-8 ovarian
RPMI-8226 leukemia = test system: RPMI-8226 leukemia
RXF 393 renal = test system: RXF 393 renal
SF-268 CNS = test system: SF-268 CNS
SF-295 CNS = test system: SF-295 CNS
SF-539 CNS = test system: SF-539 CNS
SK-MEL-2 melanoma = test system: SK-MEL-2 melanoma
SK-MEL-28 melanoma = test system: SK-MEL-28 melanoma
SK-MEL-5 melanoma = test system: SK-MEL-5 melanoma
SK-OV-3 ovarian = test system: SK-OV-3 ovarian
SN12C renal = test system: SN12C renal
SNB-19 CNS = test system: SNB-19 CNS
SNB-75 CNS = test system: SNB-75 CNS
SNB-78 CNS = test system: SNB-78 CNS
SW-620 colon = test system: SW-620 colon
TK-10 renal = test system: TK-10 renal
U251 CNS = test system: U251 CNS
UACC-257 melanoma = test system: UACC-257 melanoma
UACC-62 melanoma = test system: UACC-62 melanoma
UO-31 renal = test system: UO-31 renal
XF 498 CNS = test system: XF 498 CNS
HCC-2998 colon = test system: HCC-2998 colon
HOP-18 NSCLC = test system: HOP-18 NSCLC
KM20L2 colon = test system: KM20L2 colon
NCI-H226 lung = test system: NCI-H226 lung
RXF-631 renal = test system: RXF-631 renal
SR leukemia = test system: SR leukemia

Cc1ccccc1C(CCCO)C(=O)O (stereo unspecified)
TGI (786-0 renal): > 100 µM
TGI (A498 renal): > 100000 nM
TGI (A549 NSCLC): > 100 µM
TGI (ACHN renal): > 100 µM
TGI (CAKI-1 renal): > 100 µM
TGI (CCRF-CEM leukemia): > 100 µM
TGI (COLO 205 colon): > 100 µM
TGI (DLD-1 colon): > 100 µM
TGI (DMS 114 small cell lung): > 100 µM
TGI (DMS 273 small cell lung): > 100 µM
TGI (EKVX NSCLC): > 100 µM
TGI (HCT-116 colon): > 100 µM
TGI (HCT-15 colon): > 100 µM
TGI (HL-60(TB) leukemia): > 100 µM
TGI (HOP-62 NSCLC): > 100 µM
TGI (HOP-92 NSCLC): > 100 µM
TGI (HT29 colon): > 100 µM
TGI (IGROV1 ovarian): > 100 µM
TGI (K-562 leukemia): > 100 µM
TGI (KM12 colon): > 100 µM
TGI (LOX IMVI melanoma): > 100 µM
TGI (LXFL 529 NSCLC): > 100 µM
TGI (M14 melanoma): > 100 µM
TGI (M19-MEL melanoma): > 100 µM
TGI (MALME-3M melanoma): > 100 µM
TGI (MOLT-4 leukemia): > 100 µM
TGI (NCI-H23 lung): > 100 µM
TGI (NCI-H460 lung): > 100 µM
TGI (NCI-H522 lung): > 100 µM
TGI (OVCAR-3 ovarian): > 100 µM
TGI (OVCAR-4 ovarian): > 100 µM
TGI (OVCAR-5 ovarian): > 100 µM
TGI (OVCAR-8 ovarian): > 100 µM
TGI (RPMI-8226 leukemia): > 100 µM
TGI (RXF 393 renal): > 100 µM
TGI (SF-268 CNS): > 100 µM
TGI (SF-295 CNS): > 100 µM
TGI (SF-539 CNS): > 100 µM
TGI (SK-MEL-2 melanoma): > 100 µM
TGI (SK-MEL-28 melanoma): > 100 µM
TGI (SK-MEL-5 melanoma): > 100 µM
TGI (SK-OV-3 ovarian): > 100 µM
TGI (SN12C renal): > 100 µM
TGI (SNB-19 CNS): > 100 µM
TGI (SNB-75 CNS): > 100 µM
TGI (SNB-78 CNS): > 100 µM
TGI (SW-620 colon): > 100 µM
TGI (TK-10 renal): > 100 µM
TGI (U251 CNS): > 100 µM
TGI (UACC-257 melanoma): > 100 µM
TGI (UACC-62 melanoma): > 100 µM
TGI (UO-31 renal): > 100 µM
TGI (XF 498 CNS): > 100 µM

O=C(CCCC(=O)Nc1ccc(Cl)cc1Cl)CC(=O)c1ccc2ccccc2c1
TGI (786-0 renal): > 100 µM
TGI (A549 NSCLC): > 100 µM
TGI (ACHN renal): > 100 µM
TGI (CAKI-1 renal): > 100 µM
TGI (CCRF-CEM leukemia): > 100 µM
TGI (COLO 205 colon): > 100 µM
TGI (DLD-1 colon): > 100 µM
TGI (DMS 114 small cell lung): > 100 µM
TGI (DMS 273 small cell lung): > 100 µM
TGI (EKVX NSCLC): > 100 µM
TGI (HCC-2998 colon): > 100 µM
TGI (HCT-116 colon): > 100 µM
TGI (HCT-15 colon): > 100 µM
TGI (HL-60(TB) leukemia): > 100 µM
TGI (HOP-18 NSCLC): > 100 µM
TGI (HOP-62 NSCLC): > 100 µM
TGI (HOP-92 NSCLC): > 100 µM
TGI (HT29 colon): > 100 µM
TGI (IGROV1 ovarian): > 100 µM
TGI (K-562 leukemia): > 100 µM
TGI (KM12 colon): > 100 µM
TGI (KM20L2 colon): > 100 µM
TGI (LOX IMVI melanoma): > 100 µM
TGI (LXFL 529 NSCLC): > 100 µM
TGI (M14 melanoma): > 100 µM
TGI (M19-MEL melanoma): > 100 µM
TGI (MALME-3M melanoma): > 100 µM
TGI (MOLT-4 leukemia): > 100 µM
TGI (NCI-H226 lung): > 100 µM
TGI (NCI-H23 lung): > 100 µM
TGI (NCI-H460 lung): > 100 µM
TGI (OVCAR-3 ovarian): > 100 µM
TGI (OVCAR-4 ovarian): > 100 µM
TGI (OVCAR-5 ovarian): > 100 µM
TGI (OVCAR-8 ovarian): > 100 µM
TGI (RXF 393 renal): > 100 µM
TGI (RXF-631 renal): > 100 µM
TGI (SF-268 CNS): > 100 µM
TGI (SF-295 CNS): > 100 µM
TGI (SF-539 CNS): > 100 µM
TGI (SK-MEL-2 melanoma): > 100 µM
TGI (SK-MEL-28 melanoma): > 100 µM
TGI (SK-MEL-5 melanoma): > 100 µM
TGI (SK-OV-3 ovarian): > 100 µM
TGI (SN12C renal): > 100 µM
TGI (SNB-19 CNS): > 100 µM
TGI (SNB-78 CNS): > 100 µM
TGI (SW-620 colon): > 100 µM
TGI (TK-10 renal): > 100 µM
TGI (U251 CNS): > 100 µM
TGI (UACC-257 melanoma): > 100 µM
TGI (UACC-62 melanoma): > 100 µM
TGI (UO-31 renal): > 100 µM

COC(=O)[C@@]12OC[C@]34C([C@@H](O)C1O)[C@@]1(C)CC(=O)C(OC(=O)CC(C)C(F)(F)F)=C(C)C1C[C@H]3OC(=O)[C@H](O)[C@H]42 (stereo partly specified)
TGI (786-0 renal): 38.5 µM
TGI (A498 renal): 625 nM
TGI (A549 NSCLC): > 62.5 µM
TGI (ACHN renal): > 62.5 µM
TGI (CAKI-1 renal): > 62.5 µM
TGI (CCRF-CEM leukemia): > 62.5 µM
TGI (COLO 205 colon): 30 µM
TGI (DMS 114 small cell lung): 18.5 µM
TGI (DMS 273 small cell lung): 11.2 µM
TGI (EKVX NSCLC): > 62.5 µM
TGI (HCC-2998 colon): 11 µM
TGI (HCT-116 colon): > 62.5 µM
TGI (HCT-15 colon): > 62.5 µM
TGI (HL-60(TB) leukemia): 1.98 µM
TGI (HOP-18 NSCLC): 29.2 µM
TGI (HOP-62 NSCLC): > 62.5 µM
TGI (HOP-92 NSCLC): 23.1 µM
TGI (HT29 colon): > 62.5 µM
TGI (IGROV1 ovarian): 45.5 µM
TGI (K-562 leukemia): > 62.5 µM
TGI (KM12 colon): > 62.5 µM
TGI (KM20L2 colon): > 62.5 µM
TGI (LXFL 529 NSCLC): > 62.5 µM
TGI (M14 melanoma): 9.76 µM
TGI (M19-MEL melanoma): 6.25 µM
TGI (MALME-3M melanoma): 3.69 µM
TGI (MOLT-4 leukemia): 19.4 µM
TGI (NCI-H226 lung): 14.5 µM
TGI (NCI-H23 lung): 8.69 µM
TGI (NCI-H460 lung): > 62.5 µM
TGI (NCI-H522 lung): 24.5 µM
TGI (OVCAR-4 ovarian): > 62.5 µM
TGI (OVCAR-5 ovarian): > 62.5 µM
TGI (OVCAR-8 ovarian): > 62.5 µM
TGI (RPMI-8226 leukemia): 5.56 µM
TGI (RXF 393 renal): 23.6 µM
TGI (SF-268 CNS): 56.8 µM
TGI (SF-295 CNS): 42.5 µM
TGI (SF-539 CNS): 10.9 µM
TGI (SK-MEL-2 melanoma): 15.5 µM
TGI (SK-MEL-28 melanoma): 18.2 µM
TGI (SK-MEL-5 melanoma): 22.2 µM
TGI (SK-OV-3 ovarian): > 62.5 µM
TGI (SN12C renal): 21.2 µM
TGI (SNB-19 CNS): 22.4 µM
TGI (SNB-75 CNS): 31.4 µM
TGI (SNB-78 CNS): > 62.5 µM
TGI (SR leukemia): 19.9 µM
TGI (SW-620 colon): > 62.5 µM
TGI (TK-10 renal): > 62.5 µM
TGI (U251 CNS): > 62.5 µM
TGI (UACC-257 melanoma): 35.3 µM
TGI (UACC-62 melanoma): 4.37 µM
TGI (UO-31 renal): > 62.5 µM
TGI (XF 498 CNS): 5.18 µM
